{
  "source": "ChEMBL document CHEMBL4052649",
  "about": "“Structure-activity relationships for flavone interactions with amyloid β reveal a novel anti-aggregatory and neuroprotective effect of 2',3',4'-trihydroxyflavone (2-D08)” (Bioorg Med Chem, 2017)",
  "key": {"[1]": {"biological_target": "Amyloid-beta precursor protein (Homo sapiens) (UniProt P05067)", "sequence (P05067 whole entry)": "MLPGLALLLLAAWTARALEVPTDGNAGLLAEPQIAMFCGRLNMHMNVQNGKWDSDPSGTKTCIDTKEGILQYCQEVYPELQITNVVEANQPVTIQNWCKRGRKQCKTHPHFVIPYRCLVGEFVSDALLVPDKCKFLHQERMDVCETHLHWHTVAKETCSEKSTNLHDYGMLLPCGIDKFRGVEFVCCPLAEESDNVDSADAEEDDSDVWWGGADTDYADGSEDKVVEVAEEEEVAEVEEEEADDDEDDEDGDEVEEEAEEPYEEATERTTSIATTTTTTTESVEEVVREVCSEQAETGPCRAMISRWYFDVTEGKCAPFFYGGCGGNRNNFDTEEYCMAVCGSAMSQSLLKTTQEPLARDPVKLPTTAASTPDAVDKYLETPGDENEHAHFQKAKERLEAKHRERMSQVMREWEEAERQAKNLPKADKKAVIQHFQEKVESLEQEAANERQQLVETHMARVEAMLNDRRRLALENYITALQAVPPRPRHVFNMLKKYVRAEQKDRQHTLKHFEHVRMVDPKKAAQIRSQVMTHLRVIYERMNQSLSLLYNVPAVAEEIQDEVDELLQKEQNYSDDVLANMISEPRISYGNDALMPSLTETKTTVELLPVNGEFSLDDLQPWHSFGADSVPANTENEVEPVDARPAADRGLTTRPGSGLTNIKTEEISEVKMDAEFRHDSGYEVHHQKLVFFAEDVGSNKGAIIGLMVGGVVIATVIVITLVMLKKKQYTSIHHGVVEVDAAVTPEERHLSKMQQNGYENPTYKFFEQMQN", "experiment": "Inhibition of human amyloid beta (1 to 42) assessed as reduction in fibrillisation AUC in cell-free solution at 100 uM measured every 10 mins for 48 hrs by Thioflavin T based fluorescence assay"}, "[2]": {"biological_target": "Amyloid-beta precursor protein (Homo sapiens) (UniProt P05067)", "experiment": "Inhibition of human amyloid beta (1 to 42) aggregation assessed as reduction in fibril formation at 100 uM after 48 hrs by transmission electron microscopic analysis"}, "[3]": {"biological_target": "Amyloid-beta precursor protein (Homo sapiens) (UniProt P05067)", "experiment": "Inhibition of human amyloid beta (1 to 42) assessed as neuroprotective activity up to 2 uM of amyloid beta (1 to 42)-induced toxicity in rat PC12 cells by measuring reduction in cell viability at 100 uM incubated 15 mins prior to amyloid beta (1 to 42) addition measured after 48 hrs by MTT assay", "format": "cell-based"}, "[4]": {"biological_target": "Amyloid-beta precursor protein (Homo sapiens) (UniProt P05067)", "experiment": "Inhibition of human amyloid beta (1 to 42) aggregation at 100 uM after 48 hrs by transmission electron microscopic analysis"}, "[5]": {"biological_target": "Amyloid-beta precursor protein (Homo sapiens) (UniProt P05067)", "experiment": "Inhibition of human amyloid beta (1 to 42) fibrillisation in cell-free solution at 100 uM measured every 10 mins up to 48 hrs by Thioflavin T based fluorescence assay"}, "[6]": {"biological_target": "Amyloid-beta precursor protein (Homo sapiens) (UniProt P05067)", "experiment": "Inhibition of human amyloid beta (1 to 42) assessed as neuroprotective activity at 2 uM of amyloid beta (1 to 42)-induced toxicity in rat PC12 cells by measuring reduction in cell viability incubated 15 mins prior to amyloid beta (1 to 42) addition measured after 48 hrs by MTT assay", "format": "cell-based"}, "[7]": {"biological_target": "Amyloid-beta precursor protein (Homo sapiens) (UniProt P05067)", "experiment": "Inhibition of human amyloid beta (1 to 42) fibrillisation in cell-free solution at 100 uM measured up to 16 hrs by Thioflavin T based fluorescence assay"}, "[8]": {"biological_target": "Amyloid-beta precursor protein (Homo sapiens) (UniProt P05067)", "experiment": "Inhibition of human amyloid beta (1 to 42) aggregation assessed as increase in preponderance of fibril meshwork formation at 100 uM after 48 hrs by transmission electron microscopic analysis"}, "[9]": {"biological_target": "Amyloid-beta precursor protein (Homo sapiens) (UniProt P05067)", "experiment": "Inhibition of human amyloid beta (1 to 42) assessed as neuroprotective activity up to 1 uM of amyloid beta (1 to 42)-induced toxicity in rat PC12 cells by measuring reduction in cell viability at 100 uM incubated 15 mins prior to amyloid beta (1 to 42) addition measured after 48 hrs by MTT assay", "format": "cell-based"}, "[10]": {"test_system": "PC-12", "experiment": "Cytotoxicity against rat PC12 cells assessed as reduction in cell viability at 100 uM after 48 hrs in presence of 0.1 uM amyloid beta (1 to 42) by MTT assay", "format": "cell-based", "conditions": "pc-12, 48 h"}, "[11]": {"biological_target": "Amyloid-beta precursor protein (Homo sapiens) (UniProt P05067)", "experiment": "Inhibition of human amyloid beta (1 to 42) assessed as neuroprotective activity at 2 uM of amyloid beta (1 to 42)-induced toxicity in rat PC12 cells by measuring reduction in cell viability at 10 to 50 uM incubated 15 mins prior to amyloid beta (1 to 42) addition measured after 48 hrs by MTT assay", "format": "cell-based"}, "[12]": {"biological_target": "Amyloid-beta precursor protein (Homo sapiens) (UniProt P05067)", "experiment": "Inhibition of human amyloid beta (1 to 42) aggregation assessed as loosely attached/thin fibrils at 100 uM after 48 hrs by transmission electron microscopic analysis"}, "[13]": {"biological_target": "Amyloid-beta precursor protein (Homo sapiens) (UniProt P05067)", "experiment": "Inhibition of human amyloid beta (1 to 42) assessed as neuroprotective activity at 2 uM of amyloid beta (1 to 42)-induced toxicity in rat PC12 cells by measuring reduction in cell viability at 100 uM incubated 15 mins prior to amyloid beta (1 to 42) addition measured after 48 hrs by MTT assay", "format": "cell-based"}, "[14]": {"test_system": "PC-12", "experiment": "Cytotoxicity against rat PC12 cells assessed as reduction in cell viability at 100 uM after 48 hrs by MTT assay", "format": "cell-based", "conditions": "pc-12, 48 h"}, "[15]": {"test_system": "PC-12", "experiment": "Cytotoxicity against rat PC12 cells assessed as reduction in cell viability at 100 uM after 48 hrs in presence of up to 2 uM amyloid beta (1 to 42) by MTT assay", "format": "cell-based", "conditions": "pc-12, 48 h"}, "[16]": {"biological_target": "Amyloid-beta precursor protein (Homo sapiens) (UniProt P05067)", "experiment": "Inhibition of human amyloid beta (1 to 42) assessed as neuroprotective activity against amyloid beta (1 to 42)-induced toxicity in rat PC12 cells by measuring reduction in cell viability at 10 uM incubated 15 mins prior to amyloid beta (1 to 42) addition measured after 48 hrs by MTT assay", "format": "cell-based"}, "[17]": {"biological_target": "Amyloid-beta precursor protein (Homo sapiens) (UniProt P05067)", "experiment": "Inhibition of human amyloid beta (1 to 42) assessed as neuroprotective activity against amyloid beta (1 to 42)-induced toxicity in rat PC12 cells by measuring reduction in cell viability at 50 to 100 uM incubated 15 mins prior to amyloid beta (1 to 42) addition measured after 48 hrs by MTT assay", "format": "cell-based"}},
  "note": "Active and inactive are the calls of the source. No cut-off for these calls is given here.",
  "data": [
    {"smiles": "O=c1cc(-c2ccc(O)c(O)c2O)oc2ccccc12", "values": [
      {"measurement": "inhibition", "setting": "[1]", "result": "Active"},
      {"measurement": "inhibition", "setting": "[2]", "result": "Active"},
      {"measurement": "inhibition", "setting": "[3]", "result": "Active"},
      {"measurement": "inhibition", "setting": "[4]", "result": "Active"},
      {"measurement": "inhibition", "setting": "[5]", "result": "Active"},
      {"measurement": "inhibition", "setting": "[6]", "result": "Dose-dependent effect"}
    ]},
    {"smiles": "COc1ccc(-c2cc(=O)c3c(OC)c(OC)c(OC)c(OC)c3o2)cc1OC", "note": "[NOBILETIN]", "values": [
      {"measurement": "inhibition", "setting": "[1]", "result": "inactive"},
      {"measurement": "inhibition", "setting": "[7]", "result": "inactive"},
      {"measurement": "inhibition", "setting": "[8]", "result": "inactive"},
      {"measurement": "inhibition", "setting": "[9]", "result": "inactive"},
      {"measurement": "Activity", "setting": "[10]", "result": "Toxic"}
    ]},
    {"smiles": "COc1c(-c2ccc(O)c(O)c2)oc2c(O)c(O)ccc2c1=O", "values": [
      {"measurement": "inhibition", "setting": "[11]", "result": "Active"},
      {"measurement": "inhibition", "setting": "[1]", "result": "Active"},
      {"measurement": "inhibition", "setting": "[3]", "result": "Active"},
      {"measurement": "inhibition", "setting": "[12]", "result": "Active"},
      {"measurement": "inhibition", "setting": "[13]", "result": "inactive"},
      {"measurement": "inhibition", "setting": "[5]", "result": "Active"}
    ]},
    {"smiles": "COc1cc(-c2cc(=O)c3c(O)c(OC)c(O)cc3o2)ccc1O", "note": "[JACEOSIDINE]", "values": [
      {"measurement": "inhibition", "setting": "[1]", "result": "inactive"},
      {"measurement": "inhibition", "setting": "[7]", "result": "Active"},
      {"measurement": "inhibition", "setting": "[9]", "result": "inactive"},
      {"measurement": "Activity", "setting": "[10]", "result": "Toxic"},
      {"measurement": "inhibition", "setting": "[4]", "result": "Active"}
    ]},
    {"smiles": "O=c1c(O)c(-c2ccc(O)c(O)c2)oc2cc(O)cc(O)c12", "note": "[QUERCETIN]", "values": [
      {"measurement": "Activity", "setting": "[14]", "result": 25, "unit": "%"},
      {"measurement": "inhibition", "setting": "[1]", "result": "Active"},
      {"measurement": "inhibition", "setting": "[3]", "result": "inactive"},
      {"measurement": "inhibition", "setting": "[12]", "result": "Active"},
      {"measurement": "Activity", "setting": "[15]", "result": "Non-Toxic"},
      {"measurement": "inhibition", "setting": "[16]", "result": "Active"},
      {"measurement": "inhibition", "setting": "[17]", "result": "inactive"},
      {"measurement": "inhibition", "setting": "[5]", "result": "Active"}
    ]}
  ]
}
